According to ChEMBL document CHEMBL5303573, “Mapping human microbiome drug metabolism by gut bacteria and their genes” (Nature, 2019):

Key:
Nitroreductase = target: T1, Nitroreductase (Bacteroides thetaiotaomicron, UniProt Q8A911); assay: (§1) The drug is tested on Bacteroides thetaiotaomicron strain: VPI-5482 for biotransformation. The drug concentrations were measured before and after a 12-h incubation by liquid-chromatography-coupled mass spectrometry (LC–MS); format: ADME; parameters: dose 2 uM; settings: 2 µM
T1 sequence (Q8A911 whole entry): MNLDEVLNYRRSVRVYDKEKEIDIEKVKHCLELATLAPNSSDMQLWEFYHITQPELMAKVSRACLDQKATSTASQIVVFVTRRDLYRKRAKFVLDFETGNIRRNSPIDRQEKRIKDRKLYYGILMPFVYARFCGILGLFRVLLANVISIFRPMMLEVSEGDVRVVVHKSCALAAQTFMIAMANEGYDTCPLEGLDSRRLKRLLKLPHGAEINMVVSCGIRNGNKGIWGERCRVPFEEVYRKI

[1] = target: T2, Acetyl esterase (Acetylxylosidase) (Bacteroides thetaiotaomicron, UniProt Q8ABF8); assay: as §1; format: ADME; parameters: dose 2 uM; settings: 2 µM
T2 sequence (Q8ABF8 whole entry): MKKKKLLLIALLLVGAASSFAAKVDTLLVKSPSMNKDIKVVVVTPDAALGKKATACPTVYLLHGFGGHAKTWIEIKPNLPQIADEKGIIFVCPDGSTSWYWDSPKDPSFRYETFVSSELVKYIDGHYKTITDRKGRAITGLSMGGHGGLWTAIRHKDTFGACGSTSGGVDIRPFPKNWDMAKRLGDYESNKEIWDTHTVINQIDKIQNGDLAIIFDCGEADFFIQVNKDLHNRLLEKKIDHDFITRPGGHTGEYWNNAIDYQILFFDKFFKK

[2] = target: T3, Lipolytic enzyme, G-D-S-L family (Bacteroides thetaiotaomicron, UniProt Q8A0C5); assay: as §1; format: ADME; parameters: dose 2 uM; settings: 2 µM
T3 sequence (Q8A0C5 whole entry): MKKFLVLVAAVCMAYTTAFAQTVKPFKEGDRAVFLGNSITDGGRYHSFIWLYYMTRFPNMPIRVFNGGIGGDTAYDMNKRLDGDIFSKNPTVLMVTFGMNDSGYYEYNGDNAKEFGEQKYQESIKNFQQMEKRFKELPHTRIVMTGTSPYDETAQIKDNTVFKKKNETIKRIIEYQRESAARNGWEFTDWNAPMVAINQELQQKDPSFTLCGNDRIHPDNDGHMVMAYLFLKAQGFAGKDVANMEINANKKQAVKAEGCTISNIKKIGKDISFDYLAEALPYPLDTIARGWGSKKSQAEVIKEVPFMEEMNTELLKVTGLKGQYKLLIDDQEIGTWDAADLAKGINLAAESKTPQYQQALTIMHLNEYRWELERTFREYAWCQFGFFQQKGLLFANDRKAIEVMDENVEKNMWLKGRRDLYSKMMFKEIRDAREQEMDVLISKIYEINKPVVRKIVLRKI

[3] = target: T4, Sialic acid-specific 9-O-acetylesterase (Bacteroides thetaiotaomicron, UniProt Q8A0D0); assay: as §1; format: ADME; parameters: dose 2 uM; settings: 2 µM
T4 sequence (Q8A0D0 whole entry): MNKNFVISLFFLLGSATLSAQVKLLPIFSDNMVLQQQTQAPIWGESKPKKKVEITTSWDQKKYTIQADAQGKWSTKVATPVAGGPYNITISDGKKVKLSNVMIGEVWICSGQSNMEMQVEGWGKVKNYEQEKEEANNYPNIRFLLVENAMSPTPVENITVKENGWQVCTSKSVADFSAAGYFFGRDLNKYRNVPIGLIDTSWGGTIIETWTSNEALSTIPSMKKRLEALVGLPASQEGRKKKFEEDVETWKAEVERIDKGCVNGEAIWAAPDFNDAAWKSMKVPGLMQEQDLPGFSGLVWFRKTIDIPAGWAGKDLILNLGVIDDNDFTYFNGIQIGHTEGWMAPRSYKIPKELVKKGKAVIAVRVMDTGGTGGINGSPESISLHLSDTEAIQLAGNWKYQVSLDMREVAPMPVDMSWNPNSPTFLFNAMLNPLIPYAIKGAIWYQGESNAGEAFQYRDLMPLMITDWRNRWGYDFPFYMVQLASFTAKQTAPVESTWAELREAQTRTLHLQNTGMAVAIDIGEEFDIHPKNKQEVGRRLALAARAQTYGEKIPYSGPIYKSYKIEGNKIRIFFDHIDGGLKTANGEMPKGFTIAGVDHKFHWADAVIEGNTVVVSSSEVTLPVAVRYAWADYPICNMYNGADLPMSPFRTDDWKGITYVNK

[4] = target: T5, 3-oxo-5-alpha-steroid 4-dehydrogenase (Bacteroides thetaiotaomicron, UniProt Q8A618); assay: as §1; format: ADME; parameters: dose 2 uM; settings: 2 µM
T5 sequence (Q8A618 whole entry): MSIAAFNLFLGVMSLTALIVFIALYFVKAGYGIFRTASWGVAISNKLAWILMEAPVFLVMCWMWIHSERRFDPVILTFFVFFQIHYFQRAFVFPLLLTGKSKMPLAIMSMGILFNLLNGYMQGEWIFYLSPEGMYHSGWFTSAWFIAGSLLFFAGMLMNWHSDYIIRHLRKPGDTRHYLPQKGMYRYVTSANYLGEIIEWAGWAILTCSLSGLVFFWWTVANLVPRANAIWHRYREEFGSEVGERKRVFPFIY

[5] = target: T6, Acyltransferase 3 domain-containing protein (Phocaeicola dorei, UniProt B6W2J3); assay: (§2) The drug is tested on Bacteroides dorei strain: DSM17855 for biotransformation. The drug concentrations were measured before and after a 12-h incubation by liquid-chromatography-coupled mass spectrometry (LC–MS); format: ADME; parameters: dose 2 uM; settings: 2 µM
T6 sequence (B6W2J3 whole entry): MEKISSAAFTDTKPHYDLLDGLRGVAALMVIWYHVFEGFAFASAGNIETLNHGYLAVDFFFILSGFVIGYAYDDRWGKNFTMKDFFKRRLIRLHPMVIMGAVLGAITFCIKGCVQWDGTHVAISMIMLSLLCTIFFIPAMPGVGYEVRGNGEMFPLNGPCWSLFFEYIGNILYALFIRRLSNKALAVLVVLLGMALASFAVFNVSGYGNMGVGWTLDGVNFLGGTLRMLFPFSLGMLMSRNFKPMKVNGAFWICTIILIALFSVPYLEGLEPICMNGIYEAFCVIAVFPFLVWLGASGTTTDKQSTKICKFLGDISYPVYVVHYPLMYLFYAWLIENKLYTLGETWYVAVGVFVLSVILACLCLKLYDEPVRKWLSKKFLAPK

[6] = target: T7, Nitroreductase domain-containing protein (Phocaeicola dorei, UniProt B6W3P3); assay: as §2; format: ADME; parameters: dose 2 uM; settings: 2 µM
T7 sequence (B6W3P3 whole entry): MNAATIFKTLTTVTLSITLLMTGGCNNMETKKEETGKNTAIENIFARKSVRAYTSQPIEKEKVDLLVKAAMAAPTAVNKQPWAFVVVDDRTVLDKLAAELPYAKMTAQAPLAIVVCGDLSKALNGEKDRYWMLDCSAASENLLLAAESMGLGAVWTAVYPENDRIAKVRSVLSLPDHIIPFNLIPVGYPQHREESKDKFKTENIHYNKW

[7] = The drug is tested on Clostridium spiroforme strain: DSM1552 for biotransformation. The drug concentrations were measured before and after a 12-h incubation by liquid-chromatography-coupled mass spectrometry (LC–MS); settings: thomasclavelia spiroformis, 2 µM
[8] = The drug is tested on Clostridium hathewayi strain: DSM13479 for biotransformation. The drug concentrations were measured before and after a 12-h incubation by liquid-chromatography-coupled mass spectrometry (LC–MS); settings: hungatella hathewayi, 2 µM

Structure (SMILES) | Bacterial Biotransformation (Nitroreductase) | Bacterial Biotransformation [1] | Bacterial Biotransformation [2] | Bacterial Biotransformation [3] | Bacterial Biotransformation [4] | Bacterial Biotransformation [5] | Bacterial Biotransformation [6] | Bacterial Biotransformation [7] | Bacterial Biotransformation [8]
Nc1ccc(/N=N/c2ccccc2)c(N)n1 [PHENAZOPYRIDINE] | Compound NOT metabolized | Compound NOT metabolized | Compound NOT metabolized | Compound NOT metabolized | Compound NOT metabolized | Compound NOT metabolized | Compound NOT metabolized |  | 
C[C@@H]1CC[C@H]2[C@@H](C)C(=O)O[C@@H]3O[C@@]4(C)CC[C@@H]1[C@]32OO4 [ARTEMISININ] | Compound NOT metabolized | Compound NOT metabolized | Compound NOT metabolized | Compound NOT metabolized | Compound NOT metabolized | Compound NOT metabolized | Compound NOT metabolized | Compound metabolized | Compound metabolized
CC(=O)SCC(Cc1ccccc1)C(=O)NCC(=O)OCc1ccccc1 (stereo unspecified) [RACECADOTRIL] | Compound NOT metabolized | Compound metabolized | Compound metabolized | Compound metabolized | Compound NOT metabolized | Compound NOT metabolized | Compound NOT metabolized |  | 
CCN(CC)C(=O)/C(C#N)=C/c1cc(O)c(O)c([N+](=O)[O-])c1 [ENTACAPONE] | Compound NOT metabolized | Compound NOT metabolized | Compound NOT metabolized | Compound NOT metabolized | Compound NOT metabolized | Compound NOT metabolized | Compound NOT metabolized |  | 
CCS(=O)(=O)CCn1c([N+](=O)[O-])cnc1C [TINIDAZOLE] | Compound metabolized | Compound NOT metabolized | Compound NOT metabolized | Compound NOT metabolized | Compound NOT metabolized | Compound NOT metabolized | Compound metabolized |  | 
CC(=O)Oc1ccc(C(c2ccc(OC(C)=O)cc2)c2ccccn2)cc1 [BISACODYL] | Compound NOT metabolized | Compound metabolized | Compound metabolized | Compound metabolized | Compound NOT metabolized | Compound NOT metabolized | Compound NOT metabolized |  | 
COc1ccnc(C[S+]([O-])c2nc3ccc(OC(F)F)cc3[nH]2)c1OC (stereo unspecified) [PANTOPRAZOLE] | Compound NOT metabolized | Compound NOT metabolized | Compound NOT metabolized | Compound NOT metabolized | Compound NOT metabolized | Compound NOT metabolized | Compound NOT metabolized |  | 
C#C[C@]1(O)CC[C@H]2[C@@H]3CCC4=Cc5oncc5C[C@]4(C)[C@H]3CC[C@@]21C [DANAZOL] | Compound NOT metabolized | Compound NOT metabolized | Compound NOT metabolized | Compound NOT metabolized | Compound NOT metabolized | Compound NOT metabolized | Compound NOT metabolized |  | 
O=C(O)c1cc(/N=N/c2ccc(S(=O)(=O)Nc3ccccn3)cc2)ccc1O [SULFASALAZINE] | Compound NOT metabolized |  |  | Compound NOT metabolized | Compound NOT metabolized | Compound NOT metabolized | Compound NOT metabolized |  | 
CC(=O)OCC(=O)NCCCOc1cccc(CN2CCCCC2)c1 [ROXATIDINE ACETATE] | Compound NOT metabolized | Compound metabolized | Compound metabolized | Compound NOT metabolized | Compound NOT metabolized | Compound NOT metabolized | Compound NOT metabolized |  | 
CC(=O)Nc1ccc(OC(C)=O)cc1 [DIACETAMATE] | Compound NOT metabolized | Compound metabolized | Compound metabolized | Compound metabolized | Compound NOT metabolized | Compound NOT metabolized | Compound NOT metabolized |  | 
CC(=O)OCC(=O)[C@@]12N=C(C)O[C@@H]1C[C@H]1[C@@H]3CCC4=CC(=O)C=C[C@]4(C)[C@H]3[C@@H](O)C[C@@]12C [DEFLAZACORT] | Compound NOT metabolized | Compound NOT metabolized | Compound metabolized | Compound NOT metabolized | Compound NOT metabolized | Compound NOT metabolized | Compound NOT metabolized |  | 
CCOC(=O)C1=C(C)NC(C)=C(C(=O)OC)C1c1cccc([N+](=O)[O-])c1 (stereo unspecified) [NITRENDIPINE] | Compound NOT metabolized | Compound NOT metabolized | Compound NOT metabolized | Compound NOT metabolized | Compound NOT metabolized | Compound NOT metabolized | Compound metabolized |  | 
